# Measured values: paper PMC5782818 (Bioorganic & medicinal chemistry letters, 2017)
# Assays:
# VMAT2 [1] = target: T1, VMAT2 (Rattus norvegicus, UniProt Q01827); assay: Vesicular [^3H]DA uptake assay; type: biochemical
# METH self-administration = settings: rats; cited from earlier work
# [2] = test system: sucrose-maintained responding; settings: rats; cited from earlier work
# VMAT2 [3] = target: T1, VMAT2; settings: cited from earlier work
# [4] = cited from earlier work
# T1 sequence (Q01827 whole entry): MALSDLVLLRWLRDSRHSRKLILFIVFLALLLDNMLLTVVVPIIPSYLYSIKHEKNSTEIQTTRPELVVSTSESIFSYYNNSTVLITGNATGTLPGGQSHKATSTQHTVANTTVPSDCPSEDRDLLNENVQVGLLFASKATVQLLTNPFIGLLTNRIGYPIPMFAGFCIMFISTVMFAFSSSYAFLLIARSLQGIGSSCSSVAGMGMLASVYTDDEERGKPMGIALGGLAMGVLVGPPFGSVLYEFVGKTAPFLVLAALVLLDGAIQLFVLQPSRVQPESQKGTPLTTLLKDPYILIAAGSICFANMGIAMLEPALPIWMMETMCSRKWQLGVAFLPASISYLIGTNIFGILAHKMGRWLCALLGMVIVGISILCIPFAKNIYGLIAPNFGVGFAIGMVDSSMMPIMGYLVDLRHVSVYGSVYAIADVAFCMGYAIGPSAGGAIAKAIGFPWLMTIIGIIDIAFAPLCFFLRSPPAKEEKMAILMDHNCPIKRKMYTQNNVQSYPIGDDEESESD
compound,measurement,setting,value
"Cl.Cl.FCCOc1ccc(CCN2CCN(CCc3ccccc3Cl)CC2)cc1 [Compound 15f, 1-(2-chlorophenethyl)-4-(4-(2-fluoroethoxy)phenethyl)piperazine]",fold less potent at VMAT2 than 15d,VMAT2 [1],32 fold
CN1[C@@H](CCc2ccccc2)CCC[C@H]1CCc1ccccc1 [lobelane],effect on METH self-administration,METH self-administration,dose-dependently decreased
same,effect on sucrose-maintained responding,[2],without decreasing
CN1[C@@H](CC(=O)c2ccccc2)CCC[C@H]1C[C@H](O)c1ccccc1 [lobeline],effect on DA uptake into synaptic vesicles via VMAT2,VMAT2 [3],inhibit
same,side-effects in clinical trials,[4],bitter taste and nausea
